The text below walks through data of ChEMBL document CHEMBL1201862, “PubChem BioAssay data set” (2004).

Assay [1] concerns the target Scavenger receptor class B member 1 (Mus musculus, UniProt Q61009). The assay can be described thus: inhibitors of SR-BI mediated HDL lipid uptake, dose response, ldlA[mSR-BI] cells, fluorescence, cherry pick (AID 493194).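 Also: cellular uptake of fluorescent DiI-labeled HDL measured as cell fluorescence.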 It is filed as functional, cell-based.
In assay [2] the target is Dual specificity protein phosphatase 3 (Homo sapiens, UniProt P51452). The assay can be described thus: VHR1 inhibitor Ki determination, SAR follow-up, biochemical, colorimetric (AID 2004).
For assay [3], the target named is Voltage-gated N-type calcium channel alpha-1B subunit/Amyloid beta A4 precursor protein-binding family A member 1 (Homo sapiens, UniProt Q00975+Q02410). The assay can be described thus: disruptors of Mint-PDZ/N-type channel peptide interaction – biochemical, HTRF, set 2, SAR follow-up (AID 434980). It is filed as functional. Background: TR-FRET usually uses a lanthanide donor and a delayed reading to cut background.

The target in assay [4] is Cyclin-dependent kinase 5/CDK5 activator 1 (Homo sapiens, UniProt Q00535). Nature of the assay: CDK5/p35 kinase inhibitors, dose response, biochemical, cherry-picked samples, set 2 (AID 504545).
The target of a further assay is Beta-galactosidase (Escherichia coli, UniProt Q8VNN2). Nature of the assay: beta-galactosidase enzyme inhibitors and activators, dose response, artefact control for CCR6 antagonist project, biochemical, E. coli enzyme, set 3 (AID 504712). The assay is classed as functional.
For assay [5], the target named is T1, Endoribonuclease toxin MazF (Escherichia coli K-12, UniProt P0AE70).
T1 sequence (P0AE70 whole entry): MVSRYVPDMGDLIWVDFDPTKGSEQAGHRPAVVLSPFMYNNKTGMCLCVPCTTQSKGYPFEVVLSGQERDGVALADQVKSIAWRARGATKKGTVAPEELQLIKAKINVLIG
The assay can be described thus: MazF toxin RNase activators, dose response, biochemical, fluorescence, single-stranded RNA substrate, uHTS hits (AID 588481). It is filed as functional.

For a further assay, the target named is Prothrombin (Bos taurus, UniProt P00735). The assay can be described thus: thrombin inhibition, dose response, biochemical, fluorescence polarization, uHTS hits (AID 602369). It is filed as functional. Background: In fluorescence polarisation assays a small probe gives low polarisation when free and higher when bound to something large.
Assay [6] concerns the target T1, Endoribonuclease toxin MazF. The assay can be described thus: fluorescent RNA oligo signal without MazF, dose response, counter-screen for MazEF activator project, biochemical, fluorescence, single-stranded RNase substrate (AID 588502). It is filed as functional. A general note: A counterscreen serves to expose hits that act by an unwanted route or on another target.

In assay [7] the target is 26S proteasome non-ATPase regulatory subunit 14 (Homo sapiens, UniProt O00487). Nature of the assay: inhibition of proteasome subunit RPN11 – biochemical, fluorescence polarization, uHTS hits, confirmation (AID 602368). It is filed as functional.
In assay [8] the target is 72 kDa type IV collagenase (Homo sapiens, UniProt P08253). Nature of the assay: Dose Response validation of uHTS RPN11 inhibitor hits using a MMP-2 Fluorescence assay. It is filed as functional.
For assay [9], the target named is C-C chemokine receptor type 6 (Homo sapiens, UniProt P51684). The assay can be described thus: CCR6 receptor antagonists, dose response, cell-based, luminescent beta-arrestin readout (AID 504728). It is filed as functional.

The structures appear in SMILES notation. Activity calls are given as the source filed them. Some results are limits rather than exact numbers.

72 kDa type IV collagenase, sequence (P08253 whole entry): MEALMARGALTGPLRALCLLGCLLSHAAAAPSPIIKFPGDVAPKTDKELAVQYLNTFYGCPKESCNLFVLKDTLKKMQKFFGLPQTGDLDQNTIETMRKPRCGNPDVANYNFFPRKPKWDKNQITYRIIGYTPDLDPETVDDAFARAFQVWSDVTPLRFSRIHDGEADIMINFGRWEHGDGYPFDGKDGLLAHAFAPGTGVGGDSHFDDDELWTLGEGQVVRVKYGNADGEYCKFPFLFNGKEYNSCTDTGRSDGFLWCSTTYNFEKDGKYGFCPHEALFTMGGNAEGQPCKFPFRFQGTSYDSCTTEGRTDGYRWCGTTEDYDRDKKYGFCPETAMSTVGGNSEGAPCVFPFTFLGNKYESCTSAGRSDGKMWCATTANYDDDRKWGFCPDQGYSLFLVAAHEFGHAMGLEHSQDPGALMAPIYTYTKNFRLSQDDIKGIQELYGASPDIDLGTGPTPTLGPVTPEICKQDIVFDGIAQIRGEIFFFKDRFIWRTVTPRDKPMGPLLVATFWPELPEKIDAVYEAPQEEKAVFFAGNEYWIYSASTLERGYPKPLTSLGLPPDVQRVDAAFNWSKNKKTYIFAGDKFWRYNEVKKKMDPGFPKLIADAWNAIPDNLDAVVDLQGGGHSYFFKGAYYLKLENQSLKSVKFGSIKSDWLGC
Voltage-gated N-type calcium channel alpha-1B subunit/Amyloid beta A4 precursor protein-binding family A member 1, sequence (Q00975 whole entry): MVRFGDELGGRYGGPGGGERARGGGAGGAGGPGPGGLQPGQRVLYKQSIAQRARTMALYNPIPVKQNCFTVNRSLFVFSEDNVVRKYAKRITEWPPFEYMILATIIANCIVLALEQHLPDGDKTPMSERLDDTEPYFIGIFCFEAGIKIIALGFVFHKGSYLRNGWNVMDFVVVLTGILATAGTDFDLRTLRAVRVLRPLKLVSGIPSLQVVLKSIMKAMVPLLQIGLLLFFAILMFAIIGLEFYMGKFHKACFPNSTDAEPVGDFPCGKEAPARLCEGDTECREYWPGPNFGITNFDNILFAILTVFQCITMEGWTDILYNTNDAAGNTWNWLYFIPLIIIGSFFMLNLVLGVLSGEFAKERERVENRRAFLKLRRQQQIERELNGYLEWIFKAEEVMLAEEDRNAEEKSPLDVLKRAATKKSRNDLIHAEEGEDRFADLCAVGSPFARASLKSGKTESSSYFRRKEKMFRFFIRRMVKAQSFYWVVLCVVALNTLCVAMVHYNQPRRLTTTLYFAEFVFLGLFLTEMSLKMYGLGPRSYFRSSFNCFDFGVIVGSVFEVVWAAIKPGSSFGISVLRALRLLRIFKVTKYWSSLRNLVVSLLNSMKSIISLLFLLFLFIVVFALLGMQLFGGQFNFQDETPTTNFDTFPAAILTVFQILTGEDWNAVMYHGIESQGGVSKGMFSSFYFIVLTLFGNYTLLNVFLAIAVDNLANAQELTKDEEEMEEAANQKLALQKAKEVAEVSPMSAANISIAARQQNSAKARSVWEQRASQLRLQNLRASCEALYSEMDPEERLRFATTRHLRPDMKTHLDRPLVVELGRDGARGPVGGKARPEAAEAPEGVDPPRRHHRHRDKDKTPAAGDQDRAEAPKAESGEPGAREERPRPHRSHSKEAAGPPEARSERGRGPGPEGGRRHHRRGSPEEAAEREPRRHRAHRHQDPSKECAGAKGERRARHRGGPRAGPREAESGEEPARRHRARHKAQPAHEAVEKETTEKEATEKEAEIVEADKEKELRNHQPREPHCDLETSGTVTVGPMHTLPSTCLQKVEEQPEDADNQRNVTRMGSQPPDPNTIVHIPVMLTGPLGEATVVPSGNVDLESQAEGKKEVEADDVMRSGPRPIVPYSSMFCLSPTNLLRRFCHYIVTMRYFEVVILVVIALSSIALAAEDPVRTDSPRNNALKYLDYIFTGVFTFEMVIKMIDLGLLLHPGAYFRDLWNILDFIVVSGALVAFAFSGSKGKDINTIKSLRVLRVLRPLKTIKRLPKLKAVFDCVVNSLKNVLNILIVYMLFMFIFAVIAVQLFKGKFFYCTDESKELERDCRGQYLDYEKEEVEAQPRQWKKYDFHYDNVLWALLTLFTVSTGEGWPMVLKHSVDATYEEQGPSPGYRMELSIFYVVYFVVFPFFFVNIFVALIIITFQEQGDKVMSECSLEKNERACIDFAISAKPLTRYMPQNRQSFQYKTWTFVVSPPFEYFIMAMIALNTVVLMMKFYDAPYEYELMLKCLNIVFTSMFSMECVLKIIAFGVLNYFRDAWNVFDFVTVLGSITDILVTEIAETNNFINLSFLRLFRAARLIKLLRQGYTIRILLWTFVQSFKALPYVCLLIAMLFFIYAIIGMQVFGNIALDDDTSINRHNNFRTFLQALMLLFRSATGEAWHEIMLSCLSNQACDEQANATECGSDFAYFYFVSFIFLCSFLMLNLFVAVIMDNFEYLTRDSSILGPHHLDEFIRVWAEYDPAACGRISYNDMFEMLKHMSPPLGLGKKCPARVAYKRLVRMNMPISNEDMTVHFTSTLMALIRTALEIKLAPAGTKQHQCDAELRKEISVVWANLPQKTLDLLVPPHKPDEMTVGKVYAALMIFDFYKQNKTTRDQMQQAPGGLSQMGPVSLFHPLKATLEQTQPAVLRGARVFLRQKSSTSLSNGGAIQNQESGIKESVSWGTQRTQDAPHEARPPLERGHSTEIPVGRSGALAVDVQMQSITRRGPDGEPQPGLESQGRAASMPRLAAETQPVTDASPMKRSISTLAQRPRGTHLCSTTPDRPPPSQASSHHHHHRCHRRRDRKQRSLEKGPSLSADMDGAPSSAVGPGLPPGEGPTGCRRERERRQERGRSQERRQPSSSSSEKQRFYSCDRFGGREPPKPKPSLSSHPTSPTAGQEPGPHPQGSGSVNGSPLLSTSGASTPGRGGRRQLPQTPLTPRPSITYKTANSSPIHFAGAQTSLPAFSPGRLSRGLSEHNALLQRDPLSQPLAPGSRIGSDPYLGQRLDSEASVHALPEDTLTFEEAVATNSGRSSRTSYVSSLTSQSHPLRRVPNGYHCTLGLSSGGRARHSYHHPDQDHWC
Voltage-gated N-type calcium channel alpha-1B subunit/Amyloid beta A4 precursor protein-binding family A member 1, sequence (Q02410 whole entry): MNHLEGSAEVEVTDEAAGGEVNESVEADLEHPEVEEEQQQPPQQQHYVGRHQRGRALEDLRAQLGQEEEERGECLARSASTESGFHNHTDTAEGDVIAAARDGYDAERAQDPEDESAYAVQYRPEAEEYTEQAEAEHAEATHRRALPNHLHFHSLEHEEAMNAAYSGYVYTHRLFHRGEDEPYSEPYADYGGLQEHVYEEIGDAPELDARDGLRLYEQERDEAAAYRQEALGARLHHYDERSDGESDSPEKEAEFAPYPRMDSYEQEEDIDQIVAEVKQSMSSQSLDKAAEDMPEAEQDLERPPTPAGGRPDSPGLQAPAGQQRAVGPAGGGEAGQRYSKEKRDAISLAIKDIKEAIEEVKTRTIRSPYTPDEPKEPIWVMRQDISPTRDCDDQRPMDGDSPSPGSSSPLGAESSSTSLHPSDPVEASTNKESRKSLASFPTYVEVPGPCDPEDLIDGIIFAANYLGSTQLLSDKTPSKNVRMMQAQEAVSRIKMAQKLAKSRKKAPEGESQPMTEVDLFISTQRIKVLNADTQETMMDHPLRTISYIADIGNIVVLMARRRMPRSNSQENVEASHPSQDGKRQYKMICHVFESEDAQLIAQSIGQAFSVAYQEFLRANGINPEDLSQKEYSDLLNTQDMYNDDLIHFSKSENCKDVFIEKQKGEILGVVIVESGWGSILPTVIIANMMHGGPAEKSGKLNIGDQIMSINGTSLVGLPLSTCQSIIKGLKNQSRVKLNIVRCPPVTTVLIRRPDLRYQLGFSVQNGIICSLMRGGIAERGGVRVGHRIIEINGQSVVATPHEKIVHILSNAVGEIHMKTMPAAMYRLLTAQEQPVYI
26S proteasome non-ATPase regulatory subunit 14, sequence (O00487 whole entry): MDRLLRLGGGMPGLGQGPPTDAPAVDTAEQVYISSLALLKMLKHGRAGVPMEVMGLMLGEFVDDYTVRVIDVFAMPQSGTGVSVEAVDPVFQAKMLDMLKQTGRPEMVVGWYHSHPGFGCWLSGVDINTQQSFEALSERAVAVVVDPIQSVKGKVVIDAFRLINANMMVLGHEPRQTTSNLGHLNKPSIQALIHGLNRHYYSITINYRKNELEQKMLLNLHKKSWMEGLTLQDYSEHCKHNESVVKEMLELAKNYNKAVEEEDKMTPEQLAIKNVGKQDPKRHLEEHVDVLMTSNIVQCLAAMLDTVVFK
Scavenger receptor class B member 1, sequence (Q61009 whole entry): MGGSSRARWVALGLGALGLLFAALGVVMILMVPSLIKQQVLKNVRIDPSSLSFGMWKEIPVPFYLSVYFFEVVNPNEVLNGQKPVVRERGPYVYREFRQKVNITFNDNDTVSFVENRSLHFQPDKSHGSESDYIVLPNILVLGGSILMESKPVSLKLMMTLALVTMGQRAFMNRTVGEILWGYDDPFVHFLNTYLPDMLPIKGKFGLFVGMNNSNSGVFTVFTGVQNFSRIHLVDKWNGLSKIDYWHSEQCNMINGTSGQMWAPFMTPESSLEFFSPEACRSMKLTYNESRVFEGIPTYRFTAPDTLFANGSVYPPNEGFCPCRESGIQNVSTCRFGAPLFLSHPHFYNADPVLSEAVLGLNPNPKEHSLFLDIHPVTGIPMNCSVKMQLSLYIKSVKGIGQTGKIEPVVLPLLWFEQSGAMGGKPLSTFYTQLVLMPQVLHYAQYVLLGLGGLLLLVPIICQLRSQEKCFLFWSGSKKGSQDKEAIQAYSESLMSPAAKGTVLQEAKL
C-C chemokine receptor type 6, sequence (P51684 whole entry): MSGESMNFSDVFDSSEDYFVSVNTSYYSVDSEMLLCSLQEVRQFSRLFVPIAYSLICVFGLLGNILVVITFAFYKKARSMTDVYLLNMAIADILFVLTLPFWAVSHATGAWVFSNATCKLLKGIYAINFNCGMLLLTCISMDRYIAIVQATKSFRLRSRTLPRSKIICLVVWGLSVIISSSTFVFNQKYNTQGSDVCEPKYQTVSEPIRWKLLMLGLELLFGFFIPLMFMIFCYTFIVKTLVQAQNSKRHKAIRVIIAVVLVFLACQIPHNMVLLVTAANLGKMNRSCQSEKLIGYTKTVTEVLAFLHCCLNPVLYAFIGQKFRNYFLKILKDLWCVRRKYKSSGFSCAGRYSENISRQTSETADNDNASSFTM

What is called AC50 is the concentration at which the activity in the assay is half-maximal. For the compound `Cc1cc(C(=O)C(C)OC(=O)C2=NNC(=O)CC2)c(C)n1-c1ccc(OC(F)F)cc1` (stereo unspecified), the AC50 in assay [1] was 3.29 µM (active).
As usually defined, the Ki is the equilibrium dissociation constant of an inhibitor or competing ligand from its target. With `O=C1NC(=S)/C(=C\c2ccc(-c3ccc([N+](=O)[O-])cc3)o2)S1`, in assay [2], the Ki was 1.86 µM (active).
A word on the IC50: it is the concentration at which inhibition is half-maximal. Consider `CN1CCCC1CCNC(=O)c1cc(-c2ccco2)nc2ccccc12` (stereo unspecified), for which, in assay [3], the IC50 was 24.5 µM (active).
As for `CC(C)n1cnc2c(Nc3cccc(Cl)c3)nc(NCCCO)nc21`, the AC50 in [4] is 2.59 µM (active).
Broadly, the EC50 is the concentration that produces a half-maximal response. Regarding `COc1ccccc1C(=O)/N=C(\N)Nc1nc2ccccc2o1`, the IC50 on Beta-galactosidase is > 66.6 µM (inactive); at Prothrombin it was 60.9 µM (active); in [7], 38.3 µM (active); in [8], > 100 µM (inactive); in assay [9] it was > 66.6 µM (inactive). In addition, the EC50 in assay [5] and in [6] was > 99 µM (inactive) each time.
